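Method: 48-hour compound exposure of cells in 96-well plates, five concentrations, linear interpolation of endpoints. At the GI50, growth is halved. TGI: concentration producing complete growth inhibition.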

Test systems include 786-0 renal; UO-31 renal; HL-60(TB) leukemia; TK-10 renal; COLO 205 colon; NCI-H522 lung; NCI-H460 lung; EKVX NSCLC; HOP-92 NSCLC; NCI-H226 lung.
Common to all, as to assay: NCI tumour cell line growth inhibition, 48 h

With `CC1(C)CCOC(Sc2ccccc2)C1` (centres undefined), the TGI in the test on 786-0 renal was > 100 µM; in the test on UO-31 renal, > 100 µM; in the test on HL-60(TB) leukemia, 34.4 µM; with TK-10 renal it was > 100 µM; with COLO 205 colon it was > 100 µM; in the test with NCI-H522 lung it was > 100 µM. The TGI in the test with NCI-H460 lung and with EKVX NSCLC was > 100 µM in each case.

`COc1cc2c(cc1OCCCN1CCN(CCCOc3cc4c(cc3OC)C(=O)N3C[C@H](F)C[C@H]3C=N4)CC1)N=C[C@@H]1C[C@@H](F)CN1C2=O`: the GI50 in the test with 786-0 renal was 0.0263 µM; in the test on UO-31 renal, 0.823 µM; with HL-60(TB) leukemia, < 0.045 µM; with TK-10 renal, 0.309 µM; in the test on COLO 205 colon, 0.0373 µM; in the test on NCI-H522 lung, < 0.041 µM. Further, the GI50 with HOP-92 NSCLC is 0.064 µM; in the test on NCI-H460 lung, < 0.01 µM; with EKVX NSCLC it was 0.273 µM. For the same compound, the TGI was determined as 0.763 µM with 786-0 renal; 2.65 µM in the test with UO-31 renal; 0.797 µM in the test on HL-60(TB) leukemia; 3.28 µM with TK-10 renal; 0.193 µM in the test on COLO 205 colon; 1.16 µM in the test on NCI-H522 lung. In addition, the TGI in the test on HOP-92 NSCLC came to 14.6 µM; in the test with EKVX NSCLC, 16.3 µM.

For `O=NN(CC(=O)NNc1ccccc1)CC(=O)NNc1ccccc1`, the GI50 is 7.85 µM in the test on 786-0 renal; 2.22 µM with UO-31 renal; 0.534 µM with HL-60(TB) leukemia; > 100 µM with TK-10 renal; 5.69 µM in the test on COLO 205 colon; 1.27 µM in the test with NCI-H522 lung. Moreover, the results for the GI50 with HOP-92 NSCLC, with NCI-H460 lung and in the test with NCI-H226 lung were > 100 µM, 4.34 µM and > 100 µM, respectively. Moreover, the TGI is > 100 µM in the test with 786-0 renal; > 100 µM with UO-31 renal; > 100 µM with HL-60(TB) leukemia; > 100 µM with TK-10 renal; > 59.2 µM in the test on COLO 205 colon; > 100 µM in the test with NCI-H522 lung. In addition, the TGI with HOP-92 NSCLC, in the test with NCI-H460 lung and in the test on NCI-H226 lung was > 100 µM in each case.

As for `O=C1C[C@@H]2[C@@H](C=CC23CCCC3)N1O`, the TGI in the test on 786-0 renal, with UO-31 renal, in the test on HL-60(TB) leukemia, in the test with TK-10 renal, in the test on COLO 205 colon and in the test on NCI-H522 lung was > 100 µM throughout. Besides, the TGI in the test with NCI-H460 lung, with EKVX NSCLC and with NCI-H226 lung was > 100 µM each time.

In the case of `Nc1ncnc2c1ncn2C1(CO)OC(CO)C(O)C1O` (centres undefined), the TGI in the test on 786-0 renal, in the test on HL-60(TB) leukemia, in the test with TK-10 renal, with COLO 205 colon, with NCI-H522 lung and in the test with HOP-92 NSCLC was > 100 µM throughout. Besides, the TGI in the test on NCI-H460 lung and in the test on NCI-H226 lung was > 100 µM in each case.

For the compound `O=C1CC2=CCCC2O1` (centres undefined), the TGI with 786-0 renal, in the test on UO-31 renal, in the test with HL-60(TB) leukemia, in the test on TK-10 renal, with COLO 205 colon and with NCI-H522 lung was > 100 µM in each case. Moreover, the TGI with HOP-92 NSCLC, in the test on NCI-H460 lung and with EKVX NSCLC was > 100 µM throughout.

Consider `O=C1CC[C@@H]2[C@H]3CCC(=O)c4c3c(c3cccc(O)c3c4O)O[C@@]23C(=O)c2cccc(O)c2C(O)=C13`, for which the GI50 in the test on 786-0 renal, in the test on UO-31 renal, in the test with HL-60(TB) leukemia, in the test on TK-10 renal, in the test on COLO 205 colon and with NCI-H522 lung was > 100 µM in each case. Moreover, the GI50 in the test on NCI-H460 lung, in the test with EKVX NSCLC and in the test with NCI-H226 lung was > 100 µM throughout. For the same compound, the TGI in the test on 786-0 renal, with UO-31 renal, in the test with HL-60(TB) leukemia, in the test with TK-10 renal, with COLO 205 colon and in the test on NCI-H522 lung was > 100 µM in each case. For the same compound, the TGI in the test with NCI-H460 lung, in the test on EKVX NSCLC and in the test on NCI-H226 lung was > 100 µM each time.

Take `O=C1C=C(c2ccccc2)NC1(c1ccccc1)c1cc(-c2ccccc2)[nH]c1-c1ccccc1` (centres undefined): the TGI in the test on 786-0 renal, with UO-31 renal, in the test with HL-60(TB) leukemia, in the test with COLO 205 colon, with NCI-H460 lung and with EKVX NSCLC was > 100 µM throughout.

As for `CN(COC(=O)C(C)(C)C)c1nc(N(C)COC(=O)C(C)(C)C)nc(N(C)COC(=O)C(C)(C)C)n1`, the TGI in the test with 786-0 renal was > 100 µM; with UO-31 renal, > 100 µM; in the test on HL-60(TB) leukemia, 63.6 µM; in the test on TK-10 renal, > 100 µM; in the test with COLO 205 colon it was 35.5 µM; in the test on NCI-H522 lung, > 100 µM. Also, the TGI in the test with NCI-H460 lung, with EKVX NSCLC and in the test on NCI-H226 lung was > 100 µM each time.

As for `COc1ccc(/C(=N/O)c2cc(F)c(F)c(OC)c2F)cc1O`, the GI50 with 786-0 renal is 10.5 µM; in the test on UO-31 renal, 1.36 µM; in the test with TK-10 renal, 17.9 µM; in the test with COLO 205 colon, 5.46 µM; in the test on NCI-H522 lung it was 0.259 µM; with HOP-92 NSCLC it was 18.9 µM. In addition, the GI50 was 0.402 µM in the test on NCI-H460 lung, 0.714 µM in the test on EKVX NSCLC and 15.8 µM with NCI-H226 lung. In addition, the TGI was > 100 µM in the test on 786-0 renal; 90.9 µM in the test on UO-31 renal; > 100 µM in the test with TK-10 renal; 25.6 µM in the test on COLO 205 colon; 3.3 µM with NCI-H522 lung; > 100 µM with HOP-92 NSCLC. The TGI in the test on NCI-H460 lung, with EKVX NSCLC and with NCI-H226 lung was > 100 µM throughout.

Consider `O=C1c2ccccc2C(=O)N1CCN(CCN1C(=O)c2ccccc2C1=O)Cc1ccccc1`, for which the TGI in the test with 786-0 renal, in the test with UO-31 renal, in the test with HL-60(TB) leukemia, in the test on TK-10 renal, in the test with COLO 205 colon and in the test on NCI-H522 lung was > 100 µM throughout. Moreover, the TGI in the test with HOP-92 NSCLC, in the test with NCI-H460 lung and with EKVX NSCLC was > 100 µM in each case.

The record behind these values is PubChem BioAssay (NCI).
